According to patent US9023789B2, “Amylin analogs and pharmaceutical compositions thereof” (Novo Nordisk A/S, priority 2012, dated 2015):
Numbered stars: 1 amine (or outer) side, 2 acyl side, 3 side chain; on linkers, the order of the positions; unused ones are H or OH. Bridge positions count the residues as written; N and C are the ends. Side chains are listed from the residue outwards. Peptide text beside a SMILES is read from it. * marks the point of attachment. C20 diacid = O=C(O)CCCCCCCCCCCCCCCCCCC(=O)*; γGlu = O=C(O)[C@H](CCC(=O)[*:2])N[*:1]

Experiments:
[1] = biological target: T1, human amylin 3(a) receptor (human calcitonin receptor + RAMP-3) in BHK570 cells (Homo sapiens, UniProt O60896+P30988); experiment: ASSAY (II)a functional assay, human amylin receptor (CRE luciferase); format: cell-based
T1 construct: expressed in transfected cells
Method in brief: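 Readout is luminescence from a cAMP-responsive CRE-luc reporter, developed with LucLite for 30 min at room temperature. Cells were treated for 3 h at 37 °C in 10% FBS/DMEM buffered with 10 mM Hepes (pH 7.4).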

[2] = biological target: T2, human amylin receptor (membranes from Amylin 3(a)/CRE-luc cells) (Homo sapiens, UniProt O60896+P30988); experiment: ASSAY (V) binding to the human amylin receptor (SPA, 125I-rat amylin);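 note: competition binding of cell membranes (35 ng/µL) mixed with SPA beads in 384-well plates at 40 µL total volume, read by scintillation counting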
T2 construct: expressed in transfected cells
T2 sequence (P30988 25-474): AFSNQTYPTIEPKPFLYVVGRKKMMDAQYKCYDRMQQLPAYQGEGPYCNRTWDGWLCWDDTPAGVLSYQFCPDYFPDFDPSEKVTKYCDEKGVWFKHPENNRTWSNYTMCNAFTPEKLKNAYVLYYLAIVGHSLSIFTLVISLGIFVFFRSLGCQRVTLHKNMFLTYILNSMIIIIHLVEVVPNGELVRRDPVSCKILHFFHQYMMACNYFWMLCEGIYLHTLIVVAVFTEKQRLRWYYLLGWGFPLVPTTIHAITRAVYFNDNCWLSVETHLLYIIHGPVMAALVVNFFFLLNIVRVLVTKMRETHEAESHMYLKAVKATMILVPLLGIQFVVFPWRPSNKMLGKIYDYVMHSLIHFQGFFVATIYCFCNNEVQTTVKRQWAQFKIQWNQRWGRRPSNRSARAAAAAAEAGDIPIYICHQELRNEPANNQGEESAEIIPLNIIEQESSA
T2 sequence (O60896 24-148 partner): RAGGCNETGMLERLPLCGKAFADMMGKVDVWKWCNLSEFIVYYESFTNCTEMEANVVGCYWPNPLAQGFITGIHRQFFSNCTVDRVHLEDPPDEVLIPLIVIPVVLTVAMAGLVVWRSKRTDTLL

[3] = biological target: T3, rat amylin receptor (rat calcitonin receptor + rat RAMP 3) (Rattus norvegicus, UniProt P32214+Q9JJ73); experiment: ASSAY (VI) binding to the rat amylin receptor; conditions: for IC50: binding to rat amylin receptor, read-out: rAmylin-R bind IC50
T3 construct: expressed in transfected cells; host or cells: BHK tk'ts 13 (transient, FuGENE 6), membranes
T3 sequence (P32214 25-479 isoform P32214-2 limits assumed): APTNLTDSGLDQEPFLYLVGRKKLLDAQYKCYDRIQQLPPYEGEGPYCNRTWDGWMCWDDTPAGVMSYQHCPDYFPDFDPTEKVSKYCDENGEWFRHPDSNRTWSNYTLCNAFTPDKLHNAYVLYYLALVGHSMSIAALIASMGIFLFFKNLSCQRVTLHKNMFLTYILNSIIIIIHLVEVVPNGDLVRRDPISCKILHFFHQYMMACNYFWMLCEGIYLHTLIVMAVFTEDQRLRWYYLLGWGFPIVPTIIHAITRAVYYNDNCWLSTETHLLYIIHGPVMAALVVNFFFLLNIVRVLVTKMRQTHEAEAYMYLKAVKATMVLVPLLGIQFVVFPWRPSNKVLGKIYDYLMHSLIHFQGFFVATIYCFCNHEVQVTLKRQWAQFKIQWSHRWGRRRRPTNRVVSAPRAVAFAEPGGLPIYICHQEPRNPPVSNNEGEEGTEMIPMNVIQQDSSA
T3 sequence (Q9JJ73 23-147 partner): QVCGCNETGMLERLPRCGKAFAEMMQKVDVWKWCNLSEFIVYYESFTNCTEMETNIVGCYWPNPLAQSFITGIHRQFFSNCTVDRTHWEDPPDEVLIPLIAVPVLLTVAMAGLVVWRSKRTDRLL
Method in brief: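 Membranes for this rat amylin receptor binding assay came from BHK tk′ts 13 cells. The cells were transiently transfected with rat calcitonin receptor using the FuGENE® 6 reagent from Roche, as the manufacturer recommends. The cells were collected approximately 48 hours after transfection, and membranes were then prepared.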

rat calcitonin receptor = biological target: T4, rat calcitonin receptor (Rattus norvegicus, UniProt P32214); experiment: ASSAY (VIII) binding to the rat calcitonin receptor; conditions: Table 7, read-out: rCTR bind IC50
T4 construct: expressed in transfected cells; host or cells: BHK tk'ts 13 (transient, FuGENE 6), membranes
T4 sequence (P32214 25-479 isoform P32214-2 limits assumed): T3 sequence (P32214 25-479 isoform P32214-2 limits assumed)
Method in brief: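 BHK tk′ts 13 cells, transient rat calcitonin receptor transfection; DMEM + 10% FBS; harvest ~48 h post-transfection; membrane prep.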

[4] = hCTR funct. EC50 divided by hAmylin-R funct. EC50
[5] = hCTR funct. EC50 over hAmylin-R funct. EC50
[6] = human functional selectivity: hCTR funct. EC50 / hAmylin-R funct. EC50
[7] = Table 5, selectivity, hCTR bind IC50 / hAmylin-R bind IC50
[8] = Table 5a, selectivity, hCTR bind IC50 / hAmylin-R bind IC50
[9] = Table 5b, selectivity, hCTR bind IC50 / hAmylin-R bind IC50
[10] = Table 7, human binding selectivity, included for comparison
[11] = Table 7a (preferred compounds), human binding selectivity, included for comparison
[12] = ratio of human calcitonin receptor binding IC50 to human amylin receptor binding IC50
[13] = Table 7, rat binding selectivity, rCTR IC50 / rAmylin-R IC50
[14] = Table 7a (preferred compounds), rat binding selectivity, rCTR IC50 / rAmylin-R IC50
[15] = ratio of rCTR bind IC50 to rAmylin-R bind IC50
[16] = Table 5c, selectivity, hCTR bind IC50 / hAmylin-R bind IC50

| Compound | Ratio hCT/hAmylin funct. [1, 4] | Ratio hCT/hAmylin funct. [1, 5] | Ratio hCT/hAmylin funct. [1, 6] | Ratio hCT/hAmylin binding [2, 7] | Ratio hCT/hAmylin binding [2, 8] | Ratio hCT/hAmylin binding [2, 9] | Ratio hCT/hAmylin binding [2, 10] | Ratio hCT/hAmylin binding [2, 11] | Ratio hCT/hAmylin binding [2, 12] | IC50 ([3]; Table 7) | Ratio rCT/rAmylin binding [3, 13] | Ratio rCT/rAmylin binding [3, 14] | Ratio rCT/rAmylin binding [3, 15] | IC50 (rat calcitonin receptor) | Ratio hCT/hAmylin binding [2, 16] |
| --- | --- | --- | --- | --- | --- | --- | --- | --- | --- | --- | --- | --- | --- | --- | --- |
| CC[C@H](C)[C@H](NC(=O)[C@H](C)NC(=O)CNC(=O)[C@H](Cc1ccccc1)NC(=O)[C@H](CC(N)=O)NC(=O)[C@@H]1CCCN1C(=O)[C@H](CO)NC(=O)[C@H](CO)NC(=O)[C@H](Cc1c[nH]cn1)NC(=O)[C@H](CCCNC(=N)N)NC(=O)[C@H](CC(C)C)NC(=O)[C@H](Cc1ccccc1)NC(=O)[C@H](CCC(=O)O)NC(=O)[C@H](C)NC(=O)[C@H](CC(C)C)NC(=O)[C@H](CCCNC(=N)N)NC(=O)[C@H](CCC(N)=O)NC(=O)[C@@H](NC(=O)[C@H](C)NC(=O)[C@@H]1CSSC[C@H](NC(=O)[C@@H](N)CCCCNC(=O)CC[C@H](NC(=O)CC[C@H](NC(=O)CCCCCCCCCCCCCCCCCCC(=O)O)C(=O)O)C(=O)O)C(=O)N[C@@H](CC(N)=O)C(=O)N[C@@H]([C@@H](C)O)C(=O)N[C@@H](C)C(=O)N[C@@H]([C@@H](C)O)C(=O)N1)[C@@H](C)O)C(=O)N1CCC[C@H]1C(=O)N[C@@H](CO)C(=O)N[C@@H](CO)C(=O)N[C@H](C(=O)N[C@@H](CC(N)=O)C(=O)N[C@H](C(=O)NCC(=O)N1CCC[C@H]1C(=O)N[C@@H](CC(N)=O)C(=O)N[C@H](C(=O)N[C@@H](Cc1ccccc1)C(N)=O)[C@@H](C)O)C(C)C)[C@@H](C)O [Example 127] (H-K([γGlu-γGlu-C20 diacid])CNTATCATQRLAEFLRHSSPNFGAIPSSTNVGPNTF-NH2; disulfide 2-7 (inferred)) | 9.9 | 9.9 | 9.9 | 18.0 | 18.0 | 18.0 | 18.0 | 18.0 | 18.0 | 0.205 nM | 114.0 | 114.0 | 114.0 | 23.4 nM | – |
| CC[C@H](C)[C@H](NC(=O)[C@H](C)NC(=O)CNC(=O)[C@H](Cc1ccccc1)NC(=O)[C@H](CC(N)=O)NC(=O)[C@@H]1CCCN1C(=O)[C@H](CO)NC(=O)[C@H](CO)NC(=O)[C@H](Cc1c[nH]cn1)NC(=O)[C@H](CCCNC(=N)N)NC(=O)[C@H](CC(C)C)NC(=O)[C@H](Cc1ccccc1)NC(=O)[C@H](CCC(=O)O)NC(=O)[C@H](C)NC(=O)[C@H](CC(C)C)NC(=O)[C@H](CCCNC(=N)N)NC(=O)[C@H](CCC(N)=O)NC(=O)[C@@H](NC(=O)[C@H](C)NC(=O)[C@@H]1CSSC[C@H](NC(=O)[C@@H](N)CCCCNC(=O)CC[C@H](NC(=O)CCCCCCCCCCCCCCCCCCC(=O)O)C(=O)O)C(=O)N[C@@H](CC(N)=O)C(=O)N[C@@H]([C@@H](C)O)C(=O)N[C@@H](C)C(=O)N[C@@H]([C@@H](C)O)C(=O)N1)[C@@H](C)O)C(=O)N1CCC[C@H]1C(=O)N[C@@H](CO)C(=O)N[C@@H](CO)C(=O)N[C@H](C(=O)N[C@@H](CC(N)=O)C(=O)N[C@H](C(=O)NCC(=O)N[C@@H](CO)C(=O)N[C@@H](Cc1c[nH]cn1)C(=O)N[C@H](C(=O)N[C@@H](Cc1ccc(O)cc1)C(N)=O)[C@@H](C)O)C(C)C)[C@@H](C)O [Example 128] (H-K([γGlu-C20 diacid])CNTATCATQRLAEFLRHSSPNFGAIPSSTNVGSHTY-NH2; disulfide 2-7 (inferred); N-terminus assumed) | 13.1 | 13.1 | 13.1 | 26.4 | 26.4 | 26.4 | 26.4 | 26.4 | 26.4 | 1.16 nM | 22.7 | 22.7 | 22.7 | 26.3 nM | 26.4 |
| CC[C@H](C)[C@H](NC(=O)[C@H](C)NC(=O)CNC(=O)[C@H](Cc1ccccc1)NC(=O)[C@H](CC(N)=O)NC(=O)[C@@H]1CCCN1C(=O)[C@H](CO)NC(=O)[C@H](CO)NC(=O)[C@H](Cc1c[nH]cn1)NC(=O)[C@H](CCCNC(=N)N)NC(=O)[C@H](CC(C)C)NC(=O)[C@H](Cc1ccccc1)NC(=O)[C@H](CC(=O)O)NC(=O)[C@H](C)NC(=O)[C@H](CC(C)C)NC(=O)[C@H](CCCNC(=N)N)NC(=O)[C@H](CCC(N)=O)NC(=O)[C@@H](NC(=O)[C@H](C)NC(=O)[C@@H]1CSSC[C@H](NC(=O)[C@@H](N)CCCCNC(=O)CC[C@H](NC(=O)CC[C@H](NC(=O)CCCCCCCCCCCCCCCCCCC(=O)O)C(=O)O)C(=O)O)C(=O)N[C@@H](CC(N)=O)C(=O)N[C@@H]([C@@H](C)O)C(=O)N[C@@H](C)C(=O)N[C@@H]([C@@H](C)O)C(=O)N1)[C@@H](C)O)C(=O)N1CCC[C@H]1C(=O)N[C@@H](CO)C(=O)N[C@@H](CO)C(=O)N[C@H](C(=O)N[C@@H](CC(N)=O)C(=O)N[C@H](C(=O)NCC(=O)N1CCC[C@H]1C(=O)N[C@@H](CCCNC(=N)N)C(=O)N[C@H](C(=O)N[C@@H](Cc1ccc(O)cc1)C(N)=O)[C@@H](C)O)C(C)C)[C@@H](C)O [Example 130] (H-K([γGlu-γGlu-C20 diacid])CNTATCATQRLADFLRHSSPNFGAIPSSTNVGPRTY-NH2; disulfide 2-7 (inferred); N-terminus assumed) | 44.9 | 44.9 | 44.9 | 280.0 | 280.0 | 280.0 | 280.0 | 280.0 | 280.0 | 0.93 nM | 239.5 | 239.5 | 239.5 | 223 nM | 280.0 |
